In ChEMBL document CHEMBL1133570, “Synthesis and in vitro and in vivo activity of (-)-(1R,5R,9R)- and (+)-(1S,5S,9S)-N-alkenyl-, -N-alkynyl-, and -N-cyanoalkyl-5, 9-dimethyl-2'-hydroxy-6,7-benzomorphan homologues” (J Med Chem, 2000):
Active and inactive are the calls of the source. Unless noted, the calls are words filed in the database; no cut-off is given here.

Legend:
Mu-type opioid receptor = Mu-type opioid receptor (Mus musculus, UniProt P42866); assay: (§1) Ki value determined against Opioid receptor mu 1 using [3H]DAMGO at the Kd concentration 0.57 nM
[1] = target: T1, Opioid receptor (Mus musculus) (UniProt P42866+P32300+P33534); assay: Hot plate test was carried out for mouse injected sc and the antinociceptive activity was determined from the response; format: functional, organism-based
[2] = target: Kappa-type opioid receptor (Mus musculus, UniProt P33534); assay: (§2) Ki value determined against Opioid receptor kappa 1 using [3H]U69, 593 at the Kd concentration 0.95 nM
Sigma 2 receptor [3] = assay: Ki value determined against Sigma opioid receptor type 2 using [3H]DTG (5 nM) with 1 uM dextrallorphan to mask sigma-1 binding; set-up: species or system Mus musculus
[4] = target: T1, Opioid receptor (Mus musculus); assay: Evaluated in vivo for the antinociceptive and opioid antagonist assays in ICR male mice, Tail-Flick agonist and antagonist tests was performed; format: functional, organism-based
[5] = target: Sigma non-opioid intracellular receptor 1 (Mus musculus, UniProt O55242); assay: Ki value determined against Sigma opioid receptor type 1 using [(+)-[3H]pentazocine at the Kd concentration 2nM
[6] = target: T1, Opioid receptor (Mus musculus); assay: Using the PPQ (paraphenylquinone) assay selective opioid receptor agonist activity was established in mice; format: functional
[7] = target: Delta-type opioid receptor (Mus musculus, UniProt P32300); assay: Ki value determined against Opioid receptor delta 1 using [3H]DPDPE at the Kd concentration 2.1 nM
[8] = target: Sigma non-opioid intracellular receptor 1 (Rattus norvegicus, UniProt Q9R0C9); assay: Ki value determined against Sigma opioid receptor type 1 using [(+)-[3H]pentazocine at the Kd concentration 2 nM.
[9] = target: Delta-type opioid receptor (Homo sapiens) (UniProt P41143); assay: Antinociceptive activity was determined at Opioid receptor delta 1 versus ED80 of morphine; format: functional
[10] = (§3) Tail-flick vs. morphine ED80(morphine sulfate substituted completely) was studied to determine selective in vivo agonist and antagonist activity.; format: functional
[11] = target: T1, Opioid receptor (Mus musculus); assay: Hot plate test was carried out for mouse injected sc and the antinociceptive activity was determined from the response;IA, Inactive less than 70% of mice affected at 30 mg/kg.; format: functional, organism-based; set-up: dose 30 mg/kg
[12] = target: Delta-type opioid receptor (Homo sapiens) (UniProt P41143); assay: Antinociceptive activity was determined at Opioid receptor delta 1 using DPDPE; format: functional
[13] = target: Delta-type opioid receptor (Homo sapiens) (UniProt P41143); assay: Antinociceptive activity was determined at Opioid receptor delta 1 versus ED80 of U69,593; format: functional
[14] = target: T1, Opioid receptor (Mus musculus); assay: Evaluated in vivo for the antinociceptive and opioid antagonist assays in ICR male mice, Tail-Flick agonist and antagonist tests was performed; IA, Inactive less than 70% of mice affected at 30 mg/kg.; format: functional, organism-based; set-up: dose 30 mg/kg
[15] = target: T1, Opioid receptor (Mus musculus); assay: as §3; format: functional, organism-based
[16] = target: T1, Opioid receptor (Mus musculus); assay: Using the PPQ (paraphenylquinone) assay selective opioid receptor agonist activity was established in mice;IA, Inactive less than 70% of mice affected at 30 mg/kg.; format: functional, organism-based; set-up: dose 30 mg/kg
[17] = target: Kappa-type opioid receptor (Mus musculus) (UniProt P33534); assay: as §2
[18] = target: Mu-type opioid receptor (Mus musculus) (UniProt P42866); assay: as §1
[19] = target: T1, Opioid receptor (Mus musculus); assay: Antinociceptive activity was determined in vivo in all opioid type tests; format: organism-based
[20] = (§4) Tail-flick vs. morphine ED80(morphine sulfate substituted completely) was studied to determine selective in vivo agonist and antagonist activity.;IA, Inactive less than 70% of mice affected at 30 mg/kg.; format: functional, organism-based; set-up: dose 30 mg/kg
[21] = target: T1, Opioid receptor (Mus musculus)
Description: Antinociceptive activity was determined in vivo in all opioid type tests, expressed as AD50 administered subcutaneously

Sigma 2 receptor [22] = assay: Ki value determined against Sigma opioid receptor type 2 using [3H]DTG(5nM) with 1 uM dextrallorphan to mask sigma1 binding; set-up: species or system Mus musculus
Mus musculus = assay: as §4; format: functional, organism-based; set-up: dose 30 mg/kg
[23] = target: T1, Opioid receptor (Mus musculus); conditions: Tail
Description: (§5) Narcotic antagonist activity in the mouse tail-flick versus morphine assay

[24] = target: T1, Opioid receptor (Mus musculus); conditions: Tail; remark: listed apart in the source
Description: as §5

Sigma non-opioid intracellular receptor 1 (Mus musculus, UniProt O55242), sequence (O55242 whole entry): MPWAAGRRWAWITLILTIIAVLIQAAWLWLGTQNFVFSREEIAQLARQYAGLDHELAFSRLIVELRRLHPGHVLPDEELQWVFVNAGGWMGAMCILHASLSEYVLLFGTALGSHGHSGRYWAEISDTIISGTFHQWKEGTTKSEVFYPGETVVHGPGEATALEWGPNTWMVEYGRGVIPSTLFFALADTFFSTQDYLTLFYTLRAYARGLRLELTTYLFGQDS
Mu-type opioid receptor (Mus musculus), sequence (P42866 whole entry): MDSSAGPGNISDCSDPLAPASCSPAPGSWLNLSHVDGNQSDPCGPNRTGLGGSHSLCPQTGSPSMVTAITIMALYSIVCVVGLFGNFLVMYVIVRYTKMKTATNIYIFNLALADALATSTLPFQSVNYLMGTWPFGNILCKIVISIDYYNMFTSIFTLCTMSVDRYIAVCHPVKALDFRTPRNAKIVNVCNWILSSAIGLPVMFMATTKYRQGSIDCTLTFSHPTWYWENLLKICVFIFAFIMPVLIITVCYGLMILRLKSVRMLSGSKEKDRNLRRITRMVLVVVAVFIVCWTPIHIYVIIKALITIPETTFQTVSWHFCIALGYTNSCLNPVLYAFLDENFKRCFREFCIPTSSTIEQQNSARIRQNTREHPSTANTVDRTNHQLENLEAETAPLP
Mu-type opioid receptor, sequence (P42866 whole entry): as above
Sigma non-opioid intracellular receptor 1 (Rattus norvegicus, UniProt Q9R0C9), sequence (Q9R0C9 whole entry): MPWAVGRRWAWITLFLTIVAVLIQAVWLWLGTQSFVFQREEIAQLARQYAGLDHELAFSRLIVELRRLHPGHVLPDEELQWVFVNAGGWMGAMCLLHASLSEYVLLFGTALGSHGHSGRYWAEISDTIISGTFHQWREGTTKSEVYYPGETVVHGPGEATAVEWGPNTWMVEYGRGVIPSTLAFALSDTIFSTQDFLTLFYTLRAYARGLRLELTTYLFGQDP
Delta-type opioid receptor (Homo sapiens), sequence (P41143 whole entry): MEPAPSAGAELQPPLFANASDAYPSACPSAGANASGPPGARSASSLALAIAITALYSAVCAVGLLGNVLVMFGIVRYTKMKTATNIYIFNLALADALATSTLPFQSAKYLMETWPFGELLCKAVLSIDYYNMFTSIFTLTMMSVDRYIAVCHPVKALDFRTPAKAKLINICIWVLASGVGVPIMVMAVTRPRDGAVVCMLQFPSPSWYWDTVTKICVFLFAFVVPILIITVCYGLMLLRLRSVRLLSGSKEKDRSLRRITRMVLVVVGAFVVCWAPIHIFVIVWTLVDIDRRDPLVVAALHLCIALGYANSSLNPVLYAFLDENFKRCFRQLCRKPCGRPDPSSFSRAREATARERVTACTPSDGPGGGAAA
Kappa-type opioid receptor (Mus musculus), sequence (P33534 whole entry): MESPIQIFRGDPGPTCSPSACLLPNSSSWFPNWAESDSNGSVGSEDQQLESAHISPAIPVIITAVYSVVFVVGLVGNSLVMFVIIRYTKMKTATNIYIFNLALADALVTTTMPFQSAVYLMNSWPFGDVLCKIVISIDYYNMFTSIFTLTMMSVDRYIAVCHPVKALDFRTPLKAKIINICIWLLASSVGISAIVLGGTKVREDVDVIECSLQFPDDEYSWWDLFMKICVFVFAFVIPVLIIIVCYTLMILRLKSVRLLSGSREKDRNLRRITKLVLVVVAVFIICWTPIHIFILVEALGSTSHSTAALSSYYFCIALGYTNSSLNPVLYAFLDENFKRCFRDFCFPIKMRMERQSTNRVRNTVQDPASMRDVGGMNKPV
Kappa-type opioid receptor, sequence (P33534 whole entry): as above
T1 sequence (P32300 whole entry, looked up): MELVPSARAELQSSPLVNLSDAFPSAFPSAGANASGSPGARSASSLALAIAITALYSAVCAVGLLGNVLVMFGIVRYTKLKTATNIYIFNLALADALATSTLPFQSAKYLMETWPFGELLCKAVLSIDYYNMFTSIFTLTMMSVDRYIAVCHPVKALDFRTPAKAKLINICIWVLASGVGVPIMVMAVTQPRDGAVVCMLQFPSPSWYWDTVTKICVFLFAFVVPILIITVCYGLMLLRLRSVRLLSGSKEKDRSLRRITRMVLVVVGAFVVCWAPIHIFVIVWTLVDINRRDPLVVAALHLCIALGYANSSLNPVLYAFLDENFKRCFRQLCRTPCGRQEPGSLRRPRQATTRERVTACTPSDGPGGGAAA
T1 sequence (P33534 whole entry, looked up): as the sequence (P33534 whole entry) above
T1 sequence (P42866 whole entry, looked up): as the sequence (P42866 whole entry) above
Delta-type opioid receptor, sequence (P32300 whole entry): as the sequence (P32300 whole entry, looked up) above

C[C@H]1C2Cc3ccc(O)cc3[C@@]1(C)CCN2CCCC#N
Ki (Mu-type opioid receptor): 5.8 nM
ED50 [1]: 1 mg/kg
Ki [2]: 0.4 nM
Ki (Sigma 2 receptor [3]): 8400 nM
ED50 [4]: 0.4 mg/kg
Ki [5]: 1700 nM
ED50 [6]: 0.01 mg/kg
Ki [7]: 23 nM

C#CCCN1CC[C@]2(C)c3cc(O)ccc3CC1C2C (stereo partly drawn)
Ki [8]: 110 nM

C[C@H]1C2Cc3ccc(O)cc3[C@@]1(C)CCN2CCCCC#N
Ki (Mu-type opioid receptor): 18 nM
Ki [2]: 6.9 nM
Ki (Sigma 2 receptor [3]): 2800 nM
ED50 [4]: 15 mg/kg
Ki [5]: 490 nM
ED50 [6]: 3 mg/kg
Ki [7]: 160 nM

C#CCCCN1CC[C@]2(C)c3cc(O)ccc3CC1[C@@H]2C
AD50 [9]: 20 mg/kg
Ki (Mu-type opioid receptor): 18 nM
ED50 [10]: 2 mg/kg
ED50 [11]: inactive
AD50 [12]: 0.05 mg/kg
AD50 [13]: 1.2 mg/kg
ED50 [14]: inactive
Ki [2]: 11 nM
Ki (Sigma 2 receptor [3]): 440 nM
Ki [5]: 200 nM
ED50 [6]: 12 mg/kg
Ki [7]: 140 nM

C[C@H]1C2Cc3ccc(O)cc3[C@@]1(C)CCN2CCCCCC#N
Ki (Mu-type opioid receptor): 15 nM
ED50 [11]: inactive
ED50 [14]: inactive
Ki [2]: 11 nM
Ki (Sigma 2 receptor [3]): 380 nM
ED50 [15]: 10 mg/kg
ED50 [16]: inactive
Ki [5]: 640 nM
Ki [7]: 220 nM

CC#CCN1CC[C@]2(C)c3cc(O)ccc3CC1[C@@H]2C (stereo in doubt; 12) [listing 1 of 2 here]
Ki (Mu-type opioid receptor): 0.5 nM
ED50 [10]: 0.3 mg/kg
Ki [2]: 3.9 nM
Ki (Sigma 2 receptor [3]): 4400 nM
Ki [5]: 9800 nM
Ki [7]: 60 nM

CC1C2Cc3ccc(O)cc3[C@@]1(C)CCN2CC#N (stereo partly drawn)
Ki [8]: 11000 nM
inhibition [17]: 20.4%
inhibition [18]: 18.6%

C=CCCN1CC[C@]2(C)c3cc(O)ccc3CC1C2C (stereo partly drawn)
Ki [8]: 15 nM
inhibition [17]: 35.5%
inhibition [18]: 41%

C=CCCCN1CC[C@]2(C)c3cc(O)ccc3CC1C2C (stereo partly drawn)
Ki [8]: 2.1 nM
Ki [2]: 400 nM
inhibition [18]: 20.5%

CC1C2Cc3ccc(O)cc3[C@@]1(C)CCN2CCCCCC#N (stereo partly drawn)
Ki [8]: 33 nM
Ki [2]: 500 nM
inhibition [18]: 12.4%

COC(=O)/C=C/C(=O)N[C@@H]1CC[C@@]2(O)[C@H]3Cc4ccc(O)c5c4[C@@]2(CCN3CC2CC2)[C@H]1O5
AD50 [19]: 0.6 µg brain-1

C=CCN1CC[C@]2(C)c3cc(O)ccc3CC1[C@@H]2C
Ki (Mu-type opioid receptor): 0.9 nM
ED50 [10]: 0.2 mg/kg
ED50 [11]: inactive
ED50 [14]: inactive
Ki [2]: 0.3 nM
Ki (Sigma 2 receptor [3]): 3200 nM
Ki [5]: 11000 nM
ED50 [6]: 0.1 mg/kg
Ki [7]: 5.5 nM

C[C@H]1C2Cc3ccc(O)cc3[C@@]1(C)CCN2CCC#N
Ki (Mu-type opioid receptor): 4.2 nM
ED50 [1]: 0.1 mg/kg
Ki [2]: 0.4 nM
Ki (Sigma 2 receptor [3]): 51000 nM
ED50 [4]: 0.3 mg/kg
Ki [5]: 9800 nM
ED50 [6]: 0.05 mg/kg
Ki [7]: 9.8 nM

C=CCCN1CC[C@]2(C)c3cc(O)ccc3CC1[C@@H]2C
Ki (Mu-type opioid receptor): 2.1 nM
ED50 [1]: 0.8 mg/kg
Ki [2]: 1.3 nM
Ki (Sigma 2 receptor [3]): 620 nM
ED50 [15]: 4 mg/kg
ED50 [4]: 0.05 mg/kg
Ki [5]: 1600 nM
ED50 [6]: 0.3 mg/kg
Ki [7]: 21 nM

C[C@H]1C2Cc3ccc(O)cc3[C@@]1(C)CCN2CC#N
Ki (Mu-type opioid receptor): 100 nM
ED50 [1]: 9 mg/kg
Ki [2]: 70 nM
Ki (Sigma 2 receptor [3]): 19000 nM
ED50 [4]: 12 mg/kg
Ki [5]: 13000 nM
ED50 [6]: 1.5 mg/kg
Ki [7]: 590 nM

CC1C2Cc3ccc(O)cc3[C@@]1(C)CCN2CCCCC#N (stereo partly drawn)
Ki (Mu-type opioid receptor): 4800 nM
Ki [8]: 36 nM
Ki [2]: 1300 nM

C=CCCCCN1CC[C@]2(C)c3cc(O)ccc3CC1[C@@H]2C
Ki (Mu-type opioid receptor): 10 nM
ED50 [20]: inactive
ED50 [1]: 0.6 mg/kg
Ki [2]: 5.8 nM
Ki (Sigma 2 receptor [3]): 80 nM
ED50 [4]: 0.3 mg/kg
Ki [5]: 22 nM
ED50 [6]: 0.8 mg/kg
Ki [7]: 56 nM

Oc1ccc2c3c1O[C@H]1c4[nH]c5ccccc5c4C[C@@]4(O)[C@@H](C2)N(CC2CC2)CC[C@]314
AD50 [21]: 3.1 mg/kg

Oc1ccc2c3c1O[C@H]1c4[nH]c5c(c4C[C@@]4(O)[C@@H](C2)N(CC2CC2)CC[C@]314)C[C@@]1(O)[C@H]2Cc3ccc(O)c4c3[C@@]1(CCN2CC1CC1)[C@H]5O4
AD50 [21]: 0.3 mg/kg

C=CCCCN1CC[C@]2(C)c3cc(O)ccc3CC1[C@@H]2C
Ki (Mu-type opioid receptor): 15 nM
ED50 [10]: 6 mg/kg
ED50 [11]: inactive
ED50 [14]: inactive
Ki [2]: 5.9 nM
Ki (Sigma 2 receptor [3]): 180 nM
Ki [5]: 50 nM
ED50 [6]: 1.4 mg/kg
Ki [7]: 60 nM

CC1C2Cc3ccc(O)cc3[C@@]1(C)CCN2CCC#N (stereo partly drawn)
Ki [8]: 250 nM
Ki [2]: 600 nM
inhibition [18]: 11.6%

CC1C2Cc3ccc(O)cc3[C@@]1(C)CCN2CCCCCCC#N (stereo partly drawn)
Ki [8]: 16 nM
inhibition [17]: 17.7%
inhibition [18]: 37%

C=CCCCCN1CC[C@]2(C)c3cc(O)ccc3CC1C2C (stereo partly drawn)
Ki (Mu-type opioid receptor): 980 nM
Ki [8]: 1.1 nM

CC#CCN1CC[C@]2(C)c3cc(O)ccc3CC1[C@@H]2C (stereo in doubt; 26) [listing 1 of 2 here]
Ki (Sigma 2 receptor [22]): 12000 nM
Ki [5]: 160 nM

C#CCCN1CC[C@]2(C)c3cc(O)ccc3CC1[C@@H]2C
Ki (Mu-type opioid receptor): 4.6 nM
ED50 [20]: inactive
ED50 [1]: 0.1 mg/kg
Ki [2]: 1.4 nM
Ki (Sigma 2 receptor [3]): 2200 nM
ED50 [4]: 0.05 mg/kg
Ki [5]: 5900 nM
ED50 [6]: 0.04 mg/kg
Ki [7]: 10 nM

CC#CCN1CC[C@]2(C)c3cc(O)ccc3CC1[C@@H]2C (stereo in doubt; 12) [listing 2 of 2 here]
ED50 [11]: inactive
ED50 [14]: inactive
ED50 [6]: 0.1 mg/kg

C[C@H]1C2Cc3ccc(O)cc3[C@@]1(C)CCN2CCCCCCC#N
Ki (Mu-type opioid receptor): 90 nM
ED50 [11]: inactive
ED50 (Mus musculus): inactive
ED50 [14]: inactive
Ki [2]: 38 nM
Ki (Sigma 2 receptor [3]): 150 nM
Ki [5]: 80 nM
ED50 [6]: 9 mg/kg
Ki [7]: 350 nM

CC1C2Cc3ccc(O)cc3[C@@]1(C)CCN2CCCC#N (stereo partly drawn)
Ki [8]: 20 nM
Ki [2]: 240 nM
inhibition [18]: 9%

C=CCN1CC[C@]2(C)c3cc(O)ccc3CC1C2C (stereo partly drawn)
Ki [8]: 300 nM
inhibition [17]: 31%
AD50 [23]: 13.2 mg/kg
inhibition [18]: 28.5%

C#CCCCN1CC[C@]2(C)c3cc(O)ccc3CC1C2C (stereo partly drawn)
Ki [8]: 18 nM

CC#CCN1CC[C@]2(C)c3cc(O)ccc3CC1[C@@H]2C (stereo in doubt; 26) [listing 2 of 2 here]
AD50 [24]: 6.7 mg/kg
